Structures are written as SMILES.

For the experiment, the target named is Factor D (Homo sapiens, UniProt P00746). The experiment in a line: Factor D esterolytic assay (Z-Lys-SBzl thioester substrate, DTNB, 405 nm). It counts as biochemical. Particulars: substrate Z-Lys-SBzl 1.29 mM, 100 mM HEPES, 500 mM NaCl, pH 7.5, 10% DMSO, tested a minimum of three times. In short, it runs like this: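 Human Factor D hydrolysis of Z-Lys-SBzl (1.29 mM) monitored at 405 nm via DTNB thiol detection for 600 s, 690 nm background subtracted. Buffer 100 mM HEPES, 500 mM NaCl, pH 7.5, 10% DMSO; substrate added immediately or after room-temperature preincubation. IC50 from percent inhibition of rate, at least three tests.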
Sequence of Factor D (P00746 26-253): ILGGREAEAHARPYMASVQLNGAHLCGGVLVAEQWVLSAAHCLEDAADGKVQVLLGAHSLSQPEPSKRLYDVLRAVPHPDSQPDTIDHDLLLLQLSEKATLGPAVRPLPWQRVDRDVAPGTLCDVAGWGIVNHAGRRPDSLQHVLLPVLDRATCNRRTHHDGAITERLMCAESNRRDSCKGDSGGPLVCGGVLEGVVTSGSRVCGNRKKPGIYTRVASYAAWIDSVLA
The term IC50 denotes the midpoint of a concentration-inhibition curve. For `C[C@@]12C[C@@H](C(=O)Nc3cccc(Br)n3)N(C(=O)Cn3c4ccc(-c5cccnc5)nc4c4c(N)ncnc43)[C@@H]1C2` [Compound 372a, (1R,3S,5R)-2-(2-(4-amino-6-(pyridin-3-yl)-9H-pyrido[2′,3′:4,5]pyrrolo[2,3-d]pyrimidin-9-yl)acetyl)-N-(6-bromopyridin-2-yl)-5-methyl-2-azabicyclo[3.1.0]hexane-3-carboxamide], the IC50 lay in the range of 100 to 1000 nM.
The value for `C[C@@]12C[C@@H](C(=O)Nc3cccc(Br)n3)N(C(=O)Cn3c4ccc(C(F)(F)F)cc4c4c(N)ncnc43)[C@@H]1C2` [Compound 28a, (1R,3S,5R)-2-(2-(4-amino-6-(trifluoromethyl)-9H-pyrimido[4,5-b]indol-9-yl)acetyl)-N-(6-bromopyridin-2-yl)-5-methyl-2-azabicyclo[3.1.0]hexane-3-carboxamide] was less than 100 nM; that for `COc1ccc2c(c1)c1c(N)ncnc1n2CC(=O)N1[C@H](C(=O)Nc2nc(Br)ccc2C)C[C@@]2(C)C[C@@H]12` [Compound 252a, (1R,3S,5R)-2-(2-(4-amino-6-methoxy-9H-pyrimido[4,5-b]indol-9-yl)acetyl)-N-(6-bromo-3-methylpyridin-2-yl)-5-methyl-2-azabicyclo[3.1.0]hexane-3-carboxamide] was less than 100 nM; that for `Nc1ncnc2c1c1cc(Br)ccc1n2CC(=O)N1[C@@H]2C[C@@H]2C[C@H]1C(=O)Nc1cccc(Br)n1` [Compound 34e, (1R,3S,5R)-2-(2-(4-amino-6-bromo-9H-pyrimido[4,5-b]indol-9-yl)acetyl)-N-(6-bromopyridin-2-yl)-2-azabicyclo[3.1.0]hexane-3-carboxamide] was less than 100 nM.
On to `Nc1ncnc2c1c1cccc(C(=O)O)c1n2CC(=O)N1[C@@H]2C[C@@H]2C[C@H]1C(=O)Nc1cccc(Br)n1` [Compound 220a, 4-amino-9-(2-((1R,3S,5R)-3-((6-bromopyridin-2-yl)carbamoyl)-2-azabicyclo[3.1.0]hexan-2-yl)-2-oxoethyl)-9H-pyrimido[4,5-b]indole-8-carboxylic acid], for which the IC50 is 100 to 1000 nM.
The value for `Cc1cc(C)c2c(c1)c1c(N)ncnc1n2CC(=O)N1[C@@H]2C[C@@H]2C[C@H]1C(=O)Nc1cccc(Br)n1` [Compound 189g, (1R,3S,5R)-2-(2-(4-amino-6,8-dimethyl-9H-pyrimido[4,5-b]indol-9-yl)acetyl)-N-(6-bromopyridin-2-yl)-2-azabicyclo[3.1.0]hexane-3-carboxamide] was less than 100 nM.
For the compound `Nc1ncnc2c1c1ccc(F)cc1n2CC(=O)N1[C@@H]2C[C@@H]2C[C@H]1C(=O)Nc1cccc(Br)n1` [Compound 33e, (1R,3S,5R)-2-(2-(4-amino-7-fluoro-9H-pyrimido[4,5-b]indol-9-yl)acetyl)-N-(6-bromopyridin-2-yl)-2-azabicyclo[3.1.0]hexane-3-carboxamide], the IC50 is less than 100 nM.
With `Nc1ncnc2c1ncn2CC(=O)N1CC2(CC2)C[C@H]1C(=O)NCc1cccc(Cl)c1F` [Compound 120c, (S)-5-(2-(6-amino-9H-purin-9-yl)acetyl)-N-(3-chloro-2-fluorobenzyl)-5-azaspiro[2.4]heptane-6-carboxamide], the IC50 was more than 1000 nM.
As for `C[C@@]12C[C@@H](C(=O)Nc3cccc(Br)n3)N(C(=O)Cn3c4ccc(O)cc4c4c(N)ncnc43)[C@@H]1C2` [Compound 164a, (1R,3S,5R)-2-(2-(4-amino-6-hydroxy-9H-pyrimido[4,5-b]indol-9-yl)acetyl)-N-(6-bromopyridin-2-yl)-5-methyl-2-azabicyclo[3.1.0]hexane-3-carboxamide], the IC50 was less than 100 nM.
`C[C@H](NC(=O)[C@@H]1C[C@H]2C[C@H]2N1C(=O)Cn1ccc2c(N)ncnc21)c1cccc(Cl)c1F` [Compound 86b, (1R,3S,5R)-2-(2-(4-amino-7H-pyrrolo[2,3-d]pyrimidin-7-yl)acetyl)-N—((S)-1-(3-chloro-2-fluorophenyl)ethyl)-2-azabicyclo[3.1.0]hexane-3-carboxamide]: the IC50 is 100 to 1000 nM.

The values above are taken from US12679843B2, “Pyrrolopyrimidine amines as complement inhibitors” (BioCryst Pharmaceuticals, Inc., priority 2020, dated 2026).
